Series [1] relates to A549. Nature of the series: Antiinvasive activity against human A549 cells assessed as MMP-9 mRNA level after 24 hrs by RT-PCR analysis. The class given is functional, cell-based.
For series [2], the system named is A549. Nature of the series: Antiinvasive activity against human A549 cells assessed as MMP-2 mRNA level after 24 hrs by RT-PCR analysis. The format is functional, cell-based.
Series [3] has as its system A549. Nature of the series: Antiinvasive activity against human A549 cells assessed as increase in TIMP-2 mRNA level after 24 hrs by RT-PCR analysis. The class given is functional, cell-based.
The test system of series [4] is A549. Nature of the series: Antiinvasive activity against human A549 cells assessed as increase in TIMP-1 mRNA level after 24 hrs by RT-PCR analysis. The class given is functional, cell-based.
The subject of series [5] is A549. Nature of the series: Antiinvasive activity against human A549 cells at 50 uM after 24 hrs by micro plate reader analysis relative to control. The format is functional.
Series [6] has as its system A549. The series can be described thus: Antiinvasive activity against human A549 cells at 5 uM after 24 hrs by micro plate reader analysis relative to control. The format is functional.
The test system of series [7] is A549. Nature of the series: Cytotoxicity against human A549 cells up to 50 uM after 24 hrs by CCK-8 assay. The class given is cell-based. To be noted: a549, 24 h.

Activity calls are given as the source filed them. The rule behind the calls is not given here. Where a SMILES comes first, the peptide text is derived from it. Bridges are numbered along the chain shown (N, C = ends).

For the compound `CC[C@H](C)[C@@H]1NC(=O)[C@@H]2CCCN2C(=O)[C@H](CCCCN)NC(=O)[C@H](CO)NC(=O)CNC(=O)[C@H](Cc2ccccc2)NC(=O)CNC(=O)C[C@@H](C(=O)N[C@@H](CO)C(=O)N[C@@H](Cc2ccccc2)C(=O)NCC(=O)N[C@@H](CC(C)C)C(=O)N[C@@H](CO)C(=O)N[C@@H](Cc2c[nH]c3ccccc23)C(=O)N[C@@H](CC(C)C)C(=O)O)NC1=O` [SUNGSANPIN] (GFGSKPIDSFGLSWL-OH; lactam N-8), the outcome in the series with A549 [1] and in the series with A549 [2] was inactive. The Activity entry was “Dose-dependent effect” in the series on A549 [3]; “Dose-dependent effect” with A549 [4]; 47% with A549 [5]; 25% in the series on A549 [6]; “Non-toxic” in the series on A549 [7].

The record behind these values is ChEMBL document CHEMBL2380299, “Sungsanpin, a lasso peptide from a deep-sea streptomycete” (J Nat Prod, 2013).
